Data: US20080241904A1, “PROCESS FOR PRODUCING ISOMALTOSE AND USES THEREOF” (KABUSHIKI KAISHA HAYASHIBARA SEIBUTSU KAGAKU KENKYUJO, priority 2001, published 2008)

Legend:
[1] = system: α-isomaltosylglucosaccharide-forming enzyme from Bacillus globisporus C9 strain; test: Specificity of saccharide transferring reaction acceptor, enzyme of Strain C9; assay type: biochemical; parameters: key: −: no saccharide-transferred product was detected through transferring reaction to acceptor; ±: a saccharide-transferred product was detected in an amount of less than one percent through transfer reaction to acceptor; +: a saccharide-transferred product was detected in an amount of at least one percent but less than ten percent through transferring reaction to acceptor; ++: a saccharide-transferred product was detected in an amount of at least ten percent through transferring reaction to acceptor; conditions: 1.6% acceptor, 4% PINE-DEX #100 as donor, one unit/g donor, 30° C., pH 6.0, 24 hours; GLC or HPLC
Procedure: (§1) Using different saccharides, it was tested whether the saccharides were used as saccharide transferring reaction acceptors for the α-isomaltosylglucosaccharide-forming enzyme. A 1.6% solution, as a solution of saccharide transferring reaction acceptor, of D-glucose, D-xylose, L-xylose, D-galactose, D-fructose, D-mannose, D-arabinose, D-fucose, L-sorbose, L-rhamnose, methyl-α-glucopyranoside (methyl-α-glucose), methyl-β-glucopyranoside ([…]), N-acetyl-glucosamine, sorbitol, α,α-trehalose, isomaltose, isomaltotriose, cellobiose, gentibiose, maltitol, lactose, sucrose, α-cyclodextrin, β-cyclodextrin, or γ-cyclodextrin, was prepared. To each solution with a saccharide concentration was added “PINE-DEX #100”, a partial starch hydrolysate, as a saccharide donor, to give a concentration of 4%, and admixed with one unit/g saccharide donor, d.s.b., of either of purified specimens of α-isomaltosylglucosaccharide-forming enzyme from Bacillus globisporus C9 strain obtained by the method in Experiment 2-1, Bacillus globisporus C11 strain obtained by the method in Experiment 4-1. The resulting mixture solutions were incubated at 30° C. and pH 6.0 except that the enzyme from Arthrobacter globiformis A19 strain was incubated at pH 8.4 for 24 hours. The reaction mixtures of the post-enzymatic reactions were analyzed on gas chromatography (abbreviated as “GLC” hereinafter) for monosaccharides and disaccharides as acceptors, and on HPLC for trisaccharides as acceptors to confirm whether these saccharides could be used as their saccharide transferring reaction acceptors. In the case of performing GLC, the following apparatuses and conditions are used: GLC apparatus, “GC-16A” commercialized by Shimadzu Corporation, Tokyo, Japan; column, a stainless-steel column, 3 mm in diameter and 2 m in length, packed with 2% “SILICONE OV-17/CHROMOSOLV W”, commercialized by GL Sciences Inc., Tokyo, Japan; carrier gas, nitrogen gas at a flow rate of 40 ml/min under temperature conditions of increasing from 160° C. to 320° C. at an increasing temperature rate of 7.5° C./min; and detection, a hydrogen flame ionization detector.
(§2) In the case of HPLC analysis, the apparatuses and conditions used were: HPLC apparatus, “CCPD” commercialized by Tosoh Corporation, Tokyo, Japan; column, “ODS-AQ-303” commercialized by YMC Co., Ltd., Tokyo, Japan; eluent, water at a flow rate of 0.5 ml/min; and detection, a differential refractometer.

[2] = system: α-isomaltosylglucosaccharide-forming enzyme from Bacillus globisporus C11 strain; test: Specificity of saccharide transferring reaction acceptor, enzyme of Strain C11; assay type: biochemical; parameters: key: −: no saccharide-transferred product was detected through transferring reaction to acceptor; ±: a saccharide-transferred product was detected in an amount of less than one percent through transfer reaction to acceptor; +: a saccharide-transferred product was detected in an amount of at least one percent but less than ten percent through transferring reaction to acceptor; ++: a saccharide-transferred product was detected in an amount of at least ten percent through transferring reaction to acceptor; conditions: 1.6% acceptor, 4% PINE-DEX #100 as donor, one unit/g donor, 30° C., pH 6.0, 24 hours; GLC or HPLC
Procedure: as §1, §2

SMILES	Product of saccharide transferring reaction, Enzyme of Strain C9 [1]	Product of saccharide transferring reaction, Enzyme of Strain C11 [2]
CO[C@@H]1O[C@H](CO)[C@@H](O)[C@H](O)[C@H]1O [Methyl-β-glucopyranoside, methyl-β-glucopyranoside]	++ (a saccharide-transferred product was detected in an amount of at least ten percent through transferring reaction to acceptor)	++ (a saccharide-transferred product was detected in an amount of at least ten percent through transferring reaction to acceptor)
O=C[C@H](O)[C@@H](O)[C@H](O)CO [D-Xylose, D-xylose]	++ (a saccharide-transferred product was detected in an amount of at least ten percent through transferring reaction to acceptor)	++ (a saccharide-transferred product was detected in an amount of at least ten percent through transferring reaction to acceptor)
O=C[C@@H](O)[C@@H](O)[C@H](O)[C@H](O)CO [D-Mannose, D-mannose]	−	−
C[C@@H](O)[C@H](O)[C@H](O)[C@@H](O)C=O [D-Fucose, D-fucose]	+ (a saccharide-transferred product was detected in an amount of at least one percent but less than ten percent through transferring reaction to acceptor)	+ (a saccharide-transferred product was detected in an amount of at least one percent but less than ten percent through transferring reaction to acceptor)
O=C[C@@H](O)[C@H](O)[C@@H](O)CO [L-Xylose, L-xylose]	++ (a saccharide-transferred product was detected in an amount of at least ten percent through transferring reaction to acceptor)	++ (a saccharide-transferred product was detected in an amount of at least ten percent through transferring reaction to acceptor)
OC[C@H]1O[C@@H]2O[C@H]3[C@H](O)[C@@H](O)[C@@H](O[C@H]4[C@H](O)[C@@H](O)[C@@H](O[C@H]5[C@H](O)[C@@H](O)[C@@H](O[C@H]6[C@H](O)[C@@H](O)[C@@H](O[C@H]7[C@H](O)[C@@H](O)[C@@H](O[C@H]8[C@H](O)[C@@H](O)[C@@H](O[C@H]9[C@H](O)[C@@H](O)[C@@H](O[C@H]1[C@H](O)[C@H]2O)O[C@@H]9CO)O[C@@H]8CO)O[C@@H]7CO)O[C@@H]6CO)O[C@@H]5CO)O[C@@H]4CO)O[C@@H]3CO [γ-Cyclodextrin, γ-cyclodextrin]	−	−
O=C(CO)[C@@H](O)[C@H](O)[C@@H](O)CO [L-Sorbose, L-sorbose]	+ (a saccharide-transferred product was detected in an amount of at least one percent but less than ten percent through transferring reaction to acceptor)	+ (a saccharide-transferred product was detected in an amount of at least one percent but less than ten percent through transferring reaction to acceptor)
O=C(CO)[C@@H](O)[C@H](O)[C@H](O)CO [D-Fructose, D-fructose]	+ (a saccharide-transferred product was detected in an amount of at least one percent but less than ten percent through transferring reaction to acceptor)	+ (a saccharide-transferred product was detected in an amount of at least one percent but less than ten percent through transferring reaction to acceptor)
O=C[C@H](O)[C@@H](O)[C@H](O)[C@H](O)CO [D-Glucose, D-glucose]	+ (a saccharide-transferred product was detected in an amount of at least one percent but less than ten percent through transferring reaction to acceptor)	+ (a saccharide-transferred product was detected in an amount of at least one percent but less than ten percent through transferring reaction to acceptor)
C[C@H](O)[C@H](O)[C@@H](O)[C@@H](O)C=O [L-Rhamnose, L-rhamnose]	−	−
